Measurements taken from US10844077B2, “Thiazolyl-containing compounds for treating proliferative diseases” (Dana-Farber Cancer Institute, Inc., priority 2014, dated 2020).
Where two headings read alike, the source gives them in different places.

Assays:
Type in all cases: binding
[1] = molecular target: broad panel of kinases (Homo sapiens, UniProt O43283); conditions: LZK; 1 μM
[2] = molecular target: broad panel of kinases (Homo sapiens, UniProt O75747); conditions: PIK3C2G; 1 μM
[3] = molecular target: broad panel of kinases (Homo sapiens, UniProt P00533, DEL746-750); conditions: EGFR(E746-A750del); 1 μM
[4] = molecular target: broad panel of kinases (Homo sapiens, UniProt P15735); conditions: PHKG2; 1 μM
[5] = molecular target: broad panel of kinases (Homo sapiens, UniProt P22607); conditions: FGFR3; 1 μM
[6] = molecular target: broad panel of kinases (Homo sapiens, UniProt P31751); conditions: AKT2; 1 μM
[7] = molecular target: broad panel of kinases (Homo sapiens, UniProt P33981); conditions: TTK; 1 μM
[8] = molecular target: broad panel of kinases (Homo sapiens, UniProt P35968); conditions: VEGFR2; 1 μM
[9] = molecular target: broad panel of kinases (Homo sapiens, UniProt P36894); conditions: BMPR1A; 1 μM
[10] = molecular target: broad panel of kinases (Homo sapiens, UniProt P42336); conditions: PIK3CA; 1 μM
[11] = molecular target: broad panel of kinases (Homo sapiens, UniProt P42336, E545A); conditions: PIK3CA(E545A); 1 μM
[12] = molecular target: broad panel of kinases (Homo sapiens, UniProt P51817); conditions: PRKX; 1 μM
[13] = molecular target: broad panel of kinases (Homo sapiens, UniProt P53355); conditions: DAPK1; 1 μM
[14] = molecular target: broad panel of kinases (Homo sapiens, UniProt P78368); conditions: CSNK1G2; 1 μM
[15] = molecular target: broad panel of kinases (Homo sapiens, UniProt Q00526); conditions: CDK3; 1 μM
[16] = molecular target: broad panel of kinases (Homo sapiens, UniProt Q02779); conditions: MLK2; 1 μM
[17] = molecular target: broad panel of kinases (Homo sapiens, UniProt Q04771); conditions: ACVR1; 1 μM
[18] = molecular target: broad panel of kinases (Homo sapiens, UniProt Q04912); conditions: MST1R; 1 μM
[19] = molecular target: broad panel of kinases (Homo sapiens, UniProt Q13470); conditions: TNK1; 1 μM
[20] = molecular target: broad panel of kinases (Homo sapiens, UniProt Q13627); conditions: DYRK1A; 1 μM
[21] = molecular target: broad panel of kinases (Homo sapiens, UniProt Q15349); conditions: 1 μM
[22] = molecular target: broad panel of kinases (Homo sapiens, UniProt Q5VT25); conditions: MRCKA; 1 μM
[23] = molecular target: broad panel of kinases (Homo sapiens, UniProt Q86UE8); conditions: TLK2; 1 μM
[24] = molecular target: broad panel of kinases (Homo sapiens, UniProt Q8N568); conditions: DCAMKL2; 1 μM
[25] = molecular target: broad panel of kinases (Homo sapiens, UniProt Q8NFD2); conditions: ANKK1; 1 μM
[26] = molecular target: broad panel of kinases (Homo sapiens, UniProt Q8TDC3); conditions: BRSK1; 1 μM
[27] = molecular target: broad panel of kinases (Homo sapiens, UniProt Q99640); conditions: PKMYT1; 1 μM
[28] = molecular target: broad panel of kinases (Homo sapiens, UniProt Q9H3Y6); conditions: SRMS; 1 μM
[29] = molecular target: broad panel of kinases (Homo sapiens, UniProt Q9NQU5); conditions: PAK6; 1 μM
[30] = molecular target: broad panel of kinases (Homo sapiens, UniProt Q9NRM7); conditions: LATS2; 1 μM
[31] = molecular target: broad panel of kinases (Homo sapiens, UniProt Q9UIK4); conditions: DAPK2; 1 μM
[32] = molecular target: broad panel of kinases (Homo sapiens, UniProt Q9UK32); conditions: 1 μM
[33] = molecular target: broad panel of kinases (Homo sapiens, UniProt Q9UL54); conditions: TAOK2; 1 μM
[34] = molecular target: broad panel of kinases (Homo sapiens, UniProt Q9UM73, L1196M); conditions: ALK(L1196M); 1 μM
[35] = molecular target: broad panel of kinases (Homo sapiens, UniProt Q9Y2H1); conditions: NDR2; 1 μM
[36] = molecular target: broad panel of kinases (Homo sapiens, UniProt Q9Y4K4); conditions: MAP4K5; 1 μM

broad panel of kinases (Homo sapiens, UniProt P35968), sequence (P35968 20-1356 limits assumed): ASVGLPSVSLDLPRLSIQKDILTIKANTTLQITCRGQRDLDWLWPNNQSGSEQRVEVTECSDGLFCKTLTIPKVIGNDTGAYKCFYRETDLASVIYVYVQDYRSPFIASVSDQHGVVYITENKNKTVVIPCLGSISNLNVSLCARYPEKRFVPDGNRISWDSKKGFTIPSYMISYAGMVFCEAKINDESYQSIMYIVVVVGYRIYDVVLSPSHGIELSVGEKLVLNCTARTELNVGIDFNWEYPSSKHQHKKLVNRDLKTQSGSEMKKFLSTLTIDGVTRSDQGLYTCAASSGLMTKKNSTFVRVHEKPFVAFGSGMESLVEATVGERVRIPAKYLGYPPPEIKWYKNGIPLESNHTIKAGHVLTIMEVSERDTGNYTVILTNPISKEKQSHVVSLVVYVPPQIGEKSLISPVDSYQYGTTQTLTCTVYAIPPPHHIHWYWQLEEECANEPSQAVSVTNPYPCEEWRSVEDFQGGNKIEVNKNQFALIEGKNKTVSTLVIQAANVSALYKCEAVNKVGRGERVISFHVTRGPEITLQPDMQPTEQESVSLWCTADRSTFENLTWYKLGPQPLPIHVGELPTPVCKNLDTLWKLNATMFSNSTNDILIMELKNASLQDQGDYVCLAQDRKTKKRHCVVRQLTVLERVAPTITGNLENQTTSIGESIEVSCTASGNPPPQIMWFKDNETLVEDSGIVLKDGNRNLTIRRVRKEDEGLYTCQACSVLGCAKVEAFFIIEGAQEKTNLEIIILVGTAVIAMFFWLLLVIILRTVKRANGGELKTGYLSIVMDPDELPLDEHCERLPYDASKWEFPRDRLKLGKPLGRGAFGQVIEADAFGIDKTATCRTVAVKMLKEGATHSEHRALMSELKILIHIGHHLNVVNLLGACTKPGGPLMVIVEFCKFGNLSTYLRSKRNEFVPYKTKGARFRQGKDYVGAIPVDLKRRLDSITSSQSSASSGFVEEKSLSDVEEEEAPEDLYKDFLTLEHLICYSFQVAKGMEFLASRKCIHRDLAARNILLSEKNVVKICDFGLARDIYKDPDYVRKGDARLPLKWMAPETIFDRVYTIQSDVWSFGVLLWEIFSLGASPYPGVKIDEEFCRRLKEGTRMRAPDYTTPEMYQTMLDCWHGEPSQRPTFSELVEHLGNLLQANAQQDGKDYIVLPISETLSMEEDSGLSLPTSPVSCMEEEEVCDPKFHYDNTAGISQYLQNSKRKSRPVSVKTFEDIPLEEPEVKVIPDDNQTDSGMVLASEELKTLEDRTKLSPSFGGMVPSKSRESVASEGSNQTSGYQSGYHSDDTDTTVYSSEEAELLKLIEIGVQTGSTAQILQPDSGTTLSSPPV
broad panel of kinases (Homo sapiens, UniProt Q9UM73, L1196M), sequence (Q9UM73 19-1620 L1196M limits assumed): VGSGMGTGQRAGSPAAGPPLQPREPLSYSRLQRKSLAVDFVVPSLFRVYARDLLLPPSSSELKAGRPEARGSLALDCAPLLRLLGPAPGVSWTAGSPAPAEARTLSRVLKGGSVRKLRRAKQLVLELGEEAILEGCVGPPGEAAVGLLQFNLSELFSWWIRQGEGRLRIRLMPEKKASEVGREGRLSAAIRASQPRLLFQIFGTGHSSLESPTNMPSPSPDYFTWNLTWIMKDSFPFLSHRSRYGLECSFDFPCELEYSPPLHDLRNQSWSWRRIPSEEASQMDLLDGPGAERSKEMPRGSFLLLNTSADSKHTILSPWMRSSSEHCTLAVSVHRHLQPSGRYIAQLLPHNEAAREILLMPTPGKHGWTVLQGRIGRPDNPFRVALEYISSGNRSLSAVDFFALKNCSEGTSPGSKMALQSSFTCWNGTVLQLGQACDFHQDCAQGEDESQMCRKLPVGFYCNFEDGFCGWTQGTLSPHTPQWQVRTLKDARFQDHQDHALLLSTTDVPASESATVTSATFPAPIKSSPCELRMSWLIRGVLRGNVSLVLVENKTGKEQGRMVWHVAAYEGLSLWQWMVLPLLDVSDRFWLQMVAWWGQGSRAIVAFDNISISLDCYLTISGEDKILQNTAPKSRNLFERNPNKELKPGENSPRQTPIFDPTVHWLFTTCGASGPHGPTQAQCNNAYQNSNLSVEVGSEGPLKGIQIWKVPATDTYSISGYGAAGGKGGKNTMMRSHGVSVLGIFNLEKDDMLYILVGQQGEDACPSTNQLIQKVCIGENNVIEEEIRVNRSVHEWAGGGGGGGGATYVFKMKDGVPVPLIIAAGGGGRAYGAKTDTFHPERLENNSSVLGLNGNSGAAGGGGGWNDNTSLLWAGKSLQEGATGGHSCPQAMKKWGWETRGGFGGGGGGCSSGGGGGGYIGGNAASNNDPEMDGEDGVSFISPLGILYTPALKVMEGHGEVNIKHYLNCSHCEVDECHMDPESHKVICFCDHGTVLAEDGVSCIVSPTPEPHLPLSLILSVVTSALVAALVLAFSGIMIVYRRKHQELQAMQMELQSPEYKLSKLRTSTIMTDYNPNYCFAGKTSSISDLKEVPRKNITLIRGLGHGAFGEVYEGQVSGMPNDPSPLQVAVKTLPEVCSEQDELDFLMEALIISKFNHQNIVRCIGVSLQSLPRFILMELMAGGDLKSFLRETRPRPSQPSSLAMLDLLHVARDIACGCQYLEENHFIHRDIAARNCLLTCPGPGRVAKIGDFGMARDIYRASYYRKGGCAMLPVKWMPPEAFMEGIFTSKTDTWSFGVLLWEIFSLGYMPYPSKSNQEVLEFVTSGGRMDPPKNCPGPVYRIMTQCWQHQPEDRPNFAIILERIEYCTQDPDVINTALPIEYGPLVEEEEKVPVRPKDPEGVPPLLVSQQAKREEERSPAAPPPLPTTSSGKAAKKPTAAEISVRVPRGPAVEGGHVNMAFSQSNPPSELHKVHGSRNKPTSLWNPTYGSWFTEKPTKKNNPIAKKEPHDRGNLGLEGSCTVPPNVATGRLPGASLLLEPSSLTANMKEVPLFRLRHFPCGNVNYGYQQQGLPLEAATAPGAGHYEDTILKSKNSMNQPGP
broad panel of kinases (Homo sapiens, UniProt P00533, DEL746-750), sequence (P00533 with tags, fused parts or gaps DEL746-750 limits assumed): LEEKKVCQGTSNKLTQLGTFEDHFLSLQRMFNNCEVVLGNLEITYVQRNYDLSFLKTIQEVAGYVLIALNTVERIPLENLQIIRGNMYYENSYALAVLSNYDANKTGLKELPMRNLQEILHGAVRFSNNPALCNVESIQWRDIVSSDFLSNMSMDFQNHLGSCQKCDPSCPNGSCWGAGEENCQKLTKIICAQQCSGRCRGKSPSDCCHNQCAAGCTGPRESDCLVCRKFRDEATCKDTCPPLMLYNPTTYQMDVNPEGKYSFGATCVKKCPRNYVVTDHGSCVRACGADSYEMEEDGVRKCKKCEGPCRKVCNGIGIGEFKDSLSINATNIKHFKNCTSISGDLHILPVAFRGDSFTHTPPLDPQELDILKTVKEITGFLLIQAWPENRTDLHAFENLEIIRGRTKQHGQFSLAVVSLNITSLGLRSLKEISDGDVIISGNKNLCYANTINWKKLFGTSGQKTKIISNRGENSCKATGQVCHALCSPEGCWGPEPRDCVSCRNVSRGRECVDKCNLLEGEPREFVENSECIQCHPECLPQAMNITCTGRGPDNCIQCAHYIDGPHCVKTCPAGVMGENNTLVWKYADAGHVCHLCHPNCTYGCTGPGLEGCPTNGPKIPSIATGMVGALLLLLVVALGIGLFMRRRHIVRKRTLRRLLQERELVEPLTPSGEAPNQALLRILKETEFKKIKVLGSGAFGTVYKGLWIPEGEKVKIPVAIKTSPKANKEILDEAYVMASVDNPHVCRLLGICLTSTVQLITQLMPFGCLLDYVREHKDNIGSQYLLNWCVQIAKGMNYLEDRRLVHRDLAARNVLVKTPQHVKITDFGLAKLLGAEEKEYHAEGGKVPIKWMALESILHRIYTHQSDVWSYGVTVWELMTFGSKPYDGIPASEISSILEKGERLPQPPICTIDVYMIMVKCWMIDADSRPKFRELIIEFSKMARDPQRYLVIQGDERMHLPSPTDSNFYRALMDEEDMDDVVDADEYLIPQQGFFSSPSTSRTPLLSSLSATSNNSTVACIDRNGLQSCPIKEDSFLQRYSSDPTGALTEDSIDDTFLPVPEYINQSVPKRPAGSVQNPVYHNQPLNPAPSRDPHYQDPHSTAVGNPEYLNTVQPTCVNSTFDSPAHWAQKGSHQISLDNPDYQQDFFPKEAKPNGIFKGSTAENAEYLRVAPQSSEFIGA
broad panel of kinases (Homo sapiens, UniProt P22607), sequence (P22607 23-806 limits assumed): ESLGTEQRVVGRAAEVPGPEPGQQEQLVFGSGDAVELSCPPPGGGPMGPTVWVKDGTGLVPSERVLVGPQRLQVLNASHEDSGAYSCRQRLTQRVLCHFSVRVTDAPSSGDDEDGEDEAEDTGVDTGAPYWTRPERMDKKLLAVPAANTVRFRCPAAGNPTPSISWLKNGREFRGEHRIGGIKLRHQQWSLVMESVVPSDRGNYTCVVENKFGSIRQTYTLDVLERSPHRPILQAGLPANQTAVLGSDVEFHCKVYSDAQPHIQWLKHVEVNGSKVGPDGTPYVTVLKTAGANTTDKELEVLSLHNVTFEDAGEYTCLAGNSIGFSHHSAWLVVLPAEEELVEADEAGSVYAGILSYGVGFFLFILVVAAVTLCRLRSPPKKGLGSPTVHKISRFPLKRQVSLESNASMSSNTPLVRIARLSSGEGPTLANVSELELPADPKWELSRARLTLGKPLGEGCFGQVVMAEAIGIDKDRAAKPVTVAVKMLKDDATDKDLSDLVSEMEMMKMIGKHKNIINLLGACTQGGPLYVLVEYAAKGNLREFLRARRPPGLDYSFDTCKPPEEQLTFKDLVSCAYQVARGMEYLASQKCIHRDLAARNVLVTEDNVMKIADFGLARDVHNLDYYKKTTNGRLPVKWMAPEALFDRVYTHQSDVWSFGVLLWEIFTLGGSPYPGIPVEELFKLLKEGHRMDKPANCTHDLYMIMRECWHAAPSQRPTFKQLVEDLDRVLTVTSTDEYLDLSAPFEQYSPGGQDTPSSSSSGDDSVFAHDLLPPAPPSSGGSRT

Row | SMILES | percent of control binding remaining (lower = stronger binding) [1] [%] | percent of control binding remaining (lower = stronger binding) [2] [%] | percent of control binding remaining (lower = stronger binding) [3] [%] | percent of control binding remaining (lower = stronger binding) [4] [%] | percent of control binding remaining (lower = stronger binding) [6] [%] | percent of control binding remaining (lower = stronger binding) [7] [%] | percent of control binding remaining (lower = stronger binding) [8] [%] | percent of control binding remaining (lower = stronger binding) [9] [%] | percent of control binding remaining (lower = stronger binding) [10] [%] | percent of control binding remaining (lower = stronger binding) [11] [%] | percent of control binding remaining (lower = stronger binding) [12] [%] | percent of control binding remaining (lower = stronger binding) [13] [%] | percent of control binding remaining (lower = stronger binding) [14] [%] | percent of control binding remaining (lower = stronger binding) [15] [%] | percent of control binding remaining (lower = stronger binding) [16] [%] | percent of control binding remaining (lower = stronger binding) [17] [%] | percent of control binding remaining (lower = stronger binding) [18] [%] | percent of control binding remaining (lower = stronger binding) [19] [%] | percent of control binding remaining (lower = stronger binding) [20] [%] | percent of control binding remaining (lower = stronger binding) ([21]; RSK3(Kin.Dom.1-N-terminal)) [%] | also measured
1 | C=CC(=O)N1CC[C@H](Nc2nccc(Nc3ncc(C(=O)Nc4c(C)cccc4C)s3)n2)C1 [Example I-3] | 88 | 97 | 2.9 | 94 | 100 | 78 | 100 | 92 | 100 | 100 | 100 | 100 | 93 | 100 | 95 | 100 | 100 | 100 | 100 | 89 | % change compared to control [5]: 100%; percent of control binding remaining (lower = stronger binding) ([21]; RSK3(Kin.Dom.2-C-terminal)): 97%; percent of control binding remaining (lower = stronger binding) [22]: 88%; percent of control binding remaining (lower = stronger binding) [23]: 94%; percent of control binding remaining (lower = stronger binding) [24]: 93%; percent of control binding remaining (lower = stronger binding) [25]: 100%; percent of control binding remaining (lower = stronger binding) [26]: 100%; percent of control binding remaining (lower = stronger binding) [27]: 47%; percent of control binding remaining (lower = stronger binding) [28]: 12%; percent of control binding remaining (lower = stronger binding) [29]: 84%; percent of control binding remaining (lower = stronger binding) [30]: 92%; percent of control binding remaining (lower = stronger binding) [31]: 80%; percent of control binding remaining (lower = stronger binding) ([32]; RSK4(Kin.Dom.1-N-terminal)): 100%; percent of control binding remaining (lower = stronger binding) ([32]; RSK4(Kin.Dom.2-C-terminal)): 97%; percent of control binding remaining (lower = stronger binding) [33]: 67%; percent of control binding remaining (lower = stronger binding) [34]: 76%; percent of control binding remaining (lower = stronger binding) [35]: 58%; percent of control binding remaining (lower = stronger binding) [36]: 96%
2 | C=CC(=O)N1CC[C@H](Nc2nc(CN3CCOCC3)cc(Nc3ncc(C(=O)Nc4c(C)cccc4C)s3)n2)C1 [Example I-2] | 97 | 92 | 3.7 | 96 | 88 | 100 | 100 | 100 | 100 | 100 | 100 | 100 | 97 | 73 | 100 | 74 | 99 | 100 | 100 | 93 | percent of control binding remaining (lower = stronger binding) [5]: 99%; percent of control binding remaining (lower = stronger binding) ([21]; RSK3(Kin.Dom.2-C-terminal)): 100%; percent of control binding remaining (lower = stronger binding) [22]: 65%; percent of control binding remaining (lower = stronger binding) [23]: 97%; percent of control binding remaining (lower = stronger binding) [24]: 98%; percent of control binding remaining (lower = stronger binding) [25]: 94%; percent of control binding remaining (lower = stronger binding) [26]: 100%; percent of control binding remaining (lower = stronger binding) [27]: 59%; percent of control binding remaining (lower = stronger binding) [28]: 7.6%; percent of control binding remaining (lower = stronger binding) [29]: 93%; percent of control binding remaining (lower = stronger binding) [30]: 100%; percent of control binding remaining (lower = stronger binding) [31]: 86%; percent of control binding remaining (lower = stronger binding) ([32]; RSK4(Kin.Dom.1-N-terminal)): 100%; percent of control binding remaining (lower = stronger binding) ([32]; RSK4(Kin.Dom.2-C-terminal)): 100%; percent of control binding remaining (lower = stronger binding) [33]: 65%; percent of control binding remaining (lower = stronger binding) [34]: 72%; percent of control binding remaining (lower = stronger binding) [35]: 96%; percent of control binding remaining (lower = stronger binding) [36]: 82%
